Reference: PubChem BioAssay (NCI)
“And” between values parts separate entries of the source, which are not always exact repeats. Equal values may be shown once.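 Test compounds were applied to cells in 96-well plates for 48 hours at 5 doses. GI50 is the concentration that inhibits growth by half. TGI marks complete inhibition of growth.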

What was measured:
Assay in all cases: inhibition of tumour cell growth, NCI panel, 48 h
[1] = test system: MDA-MB-435
[2] = test system: BT-549 breast
[3] = test system: SF-268 CNS
[4] = test system: MCF7 breast
[5] = test system: MALME-3M melanoma
[6] = test system: COLO 205 colon
[7] = test system: EKVX NSCLC
[8] = test system: UO-31 renal
[9] = test system: SNB-75 CNS
[10] = test system: HT29 colon

Compound `CC(=O)Oc1ccc(/C(=C(\C)c2ccc(Cl)cc2)c2ccc(OCCN3CCCCC3)cc2)cc1` has a GI50 [1] of 1.7 µM, a TGI [1] of 3.26 µM and a GI50 [2] of 1.83 µM. The TGI [2] was 3.58 µM, the GI50 [3] was 1.82 µM and the TGI [3] was 3.86 µM. For the same compound, the TGI [4] was 2.55 µM, the GI50 [5] was 1.96 µM and the TGI [5] was 3.91 µM. It also gave a GI50 [6] of 1.79 µM, a TGI [6] of 3.5 µM and a GI50 [7] of 2.15 µM. For the same compound, the TGI [7] was 6.32 µM, the GI50 [8] was 1.59 µM and the TGI [8] was 3.09 µM. For the same compound, the GI50 [9] was 1.55 µM, the TGI [9] was 3.77 µM and the GI50 [10] was 1.19 µM. The TGI [10] was 3.24 µM.

`O=C(Nc1ccc(/C=C/c2ccc(NC(=O)c3cc(S(=O)(=O)O)c4cccnc4c3O)cc2S(=O)(=O)O)c(S(=O)(=O)O)c1)c1cc(S(=O)(=O)O)c2cccnc2c1O` showed a GI50 [1] of over 56.7 µM, a TGI [1] of over 74.1 µM and a GI50 [2] of 21.8 µM. The TGI [2] was over 79.8 µM, the GI50 [3] was 7.99 µM and the TGI [3] was over 100 µM. The GI50 [4] was 38.5 µM, the TGI [4] was over 100 µM and the GI50 [5] was 34.4 µM. For the same compound, the TGI [5] was over 62.6 µM, the GI50 [6] was 19.9 µM and the TGI [6] was over 57.5 µM. It also gave a GI50 [7] of over 50.9 µM, a TGI [7] of over 80.5 µM and a GI50 [8] of 24.5 µM. For the same compound, the TGI [8] was over 69 µM, the GI50 [9] was 8.18 µM and the TGI [9] was 48.7 µM. It also gave a GI50 [10] of 32.1 µM and a TGI [10] of over 100 µM.

`COc1cc2c(cc1OC)C1Cc3cc(OC)c(OC)cc3C(C2)N1C` showed a TGI [1] of over 75 µM, a TGI [2] of over 75 µM and a TGI [3] of over 100 µM. It also gave a TGI [4] of over 75 µM, a TGI [5] of over 100 µM and a TGI [6] of over 75 µM. For the same compound, the TGI [7] was over 100 µM, the GI50 [8] was 19.7 µM and 40.5 µM and the TGI [8] was over 100 µM. For the same compound, the TGI [9] was over 100 µM, the GI50 [10] was 23.5 µM and 54 µM and the TGI [10] was over 100 µM.

`CCN1Cc2nc3sc(C)c(C)c3c(=O)n2C=C1C` showed a GI50 [1] of 6.48 µM, a TGI [1] of 39.1 µM and a GI50 [2] of 7.36 µM. The TGI [2] was 92.1 µM, the GI50 [3] was 5.41 µM and the TGI [3] was 36.2 µM. For the same compound, the GI50 [4] was 3.94 µM, the TGI [4] was 53.3 µM and the GI50 [5] was 16.4 µM. The TGI [5] was 73.5 µM, the GI50 [6] was 24.4 µM and the TGI [6] was over 100 µM. The GI50 [7] was 21.8 µM, the TGI [7] was over 100 µM and the GI50 [8] was 5.29 µM. It also gave a TGI [8] of over 100 µM, a GI50 [9] of 10.2 µM and a TGI [9] of over 100 µM. For the same compound, the GI50 [10] was 3.9 µM and the TGI [10] was 15.8 µM.

`CCCCCCCCCCCCOC1C(CNC(=O)C2OC3OC(C)(C)OC3C2NC(=O)Nc2ccc(CC(=O)NC(Cc3ccccc3)C(=O)O)cc2)OC2OC(C)(C)OC21` (stereo unspecified) showed a GI50 [1] of over 25 µM, a TGI [1] of over 25 µM and a GI50 [2] of 22.7 µM. It also gave a TGI [2] of over 25 µM, a GI50 [3] of over 25 µM and a TGI [3] of over 25 µM. It also gave a GI50 [4] of over 25 µM, a TGI [4] of over 25 µM and a GI50 [5] of over 25 µM. It also gave a TGI [5] of over 25 µM, a GI50 [6] of over 25 µM and a TGI [6] of over 25 µM. The GI50 [7] was over 25 µM, the TGI [7] was over 25 µM and the GI50 [8] was over 25 µM. It also gave a TGI [8] of over 25 µM, a GI50 [9] of over 25 µM and a TGI [9] of over 25 µM. The GI50 [10] was over 25 µM and the TGI [10] was over 25 µM.

Work on `COc1ccc(-n2ccnc2-c2cc(OC)c(OC)c(OC)c2)cc1` yielded a GI50 [1] of 0.303 µM, a TGI [1] of 1.32 µM and a GI50 [2] of 5.03 µM. For the same compound, the TGI [2] was over 100 µM, the GI50 [3] was 8.69 µM and the TGI [3] was over 100 µM. The GI50 [4] was 1.55 µM, the TGI [4] was over 100 µM and the GI50 [5] was 0.747 µM. The TGI [5] was over 100 µM, the GI50 [6] was 1.33 µM and the TGI [6] was 5.74 µM. For the same compound, the GI50 [7] was 34 µM, the TGI [7] was over 100 µM and the GI50 [8] was 4.91 µM. The TGI [8] was 71.2 µM, the GI50 [9] was 2.19 µM and the TGI [9] was 6.31 µM. It also gave a GI50 [10] of 1.86 µM.

Work on `COc1cc(C(=O)Nc2cc(OC)c3ccn(C)c3c2)cc2c1C[C@]1(C)CC[C@@H](O)C(C)(C)[C@H]1O2` yielded a GI50 [1] of 1.01 µM, a TGI [1] of 3.38 µM and a GI50 [2] of 0.558 µM. It also gave a TGI [2] of 30.3 µM, a GI50 [3] of 1.99 µM and a TGI [3] of over 100 µM. The GI50 [4] was 0.612 µM, the TGI [4] was 15.1 µM and the GI50 [5] was 2.74 µM. It also gave a TGI [5] of over 100 µM, a GI50 [6] of 1.4 µM and a TGI [6] of 6.41 µM. For the same compound, the GI50 [7] was 1.87 µM, the TGI [7] was over 100 µM and the GI50 [8] was 0.0988 µM. The TGI [8] was 1.17 µM, the GI50 [9] was 0.0521 µM and the TGI [9] was 2.19 µM. For the same compound, the GI50 [10] was 1.68 µM and the TGI [10] was 13.8 µM.

With `Cc1c(O)c2c(c(O)c1Br)C(=O)C=CC2=O` the TGI [1] was 0.451 µM, the TGI [2] was 1.3 µM and the TGI [3] was 4.63 µM and 6.51 µM. The GI50 [4] was 0.41 µM, the TGI [4] was 0.399 µM and 1.54 µM and the GI50 [5] was 0.552 µM. The TGI [5] was 0.776 µM and 1.81 µM, the GI50 [6] was 0.334 µM and the TGI [6] was 0.428 µM and 1.45 µM. The TGI [7] was 5.21 µM, the GI50 [8] was 1.38 µM and the TGI [8] was 1.23 µM and 2.95 µM. The GI50 [9] was 2.1 µM, the TGI [9] was 2.85 µM and 5.07 µM and the GI50 [10] was 0.602 µM. The TGI [10] was 1.1 µM and 2.8 µM.

Compound `CC1OC(OC2C(OC3CCC4(C)C(CCC5(C)C4CC=C4C6CC(C)(C)CCC6(C(=O)O)CCC45C)C3(C)CO)OCC(O)C2O)C(O)C(O)C1O` (stereo unspecified) has a TGI [1] of 43 µM, a TGI [2] of 35 µM and a TGI [3] of 37.6 µM. It also gave a TGI [4] of 1.91 µM, a TGI [5] of 37.5 µM and a TGI [6] of 44.4 µM. For the same compound, the TGI [7] was 40 µM, the TGI [8] was 13.1 µM and the TGI [9] was 30.7 µM. It also gave a TGI [10] of 44.7 µM.
